The target in assay [1] is PKC enzyme. Nature of the assay: in vitro biochemical PKC assay with PKC sensor (not caged). The conditions noted are these: 1 mM ATP, 1 μM PKC sensor (not caged), 22 nM PKC enzyme; read-out: IC-50 determined in an in vitro biochemical assay.
Assay [2] deals with protein kinase C (PKC). Description: in vivo IC-50 determination with photolabile caged PKC sensor in living HeLa cells. In kind it is cell-based. The conditions noted are these: HeLa cells transfected with 10 μM caged PKC sensor; 30 min inhibitor incubation; uncaging 1 J/cm^2 365 nm; 1 μM PMA; read-out: IC-50 determined in vivo. How it is done:
The caged PKC sensor was transfected into the cells at a concentration of 10 μM, as follows. To 37.5 μl serum-free DMEM, 2.5 μl Profect P-2 and then 10 μl of caged PKC sensor (diluted to 500 μM in PBS) were added. The reagents were mixed gently and incubated for 30 minutes at room temperature. The DMEM was removed from the well containing the HeLa cells, and the cells were washed once with PBS. After addition of 450 μl serum-free DMEM to the Profect P-2-caged sensor complex, 50 μl of the complex was added to each well. The HeLa cells were incubated with the complex at 37° C. for 2 h (or optionally longer, with the addition of fresh DMEM). To uncage the caged PKC sensor, cells were exposed from beneath the plate to 1 J/cm^2 365 nm UV light. Uncaging light was produced by a BlueWave ™ UV Spot Light System fitted with a Lightguide mount assembly, Cool Blue™ filter, and Lightguide rod lens assembly (Dymax Corp., on the internet at dymax.com, part numbers 38600, 38670, and 38699). […] Fluorescent signal from the PKC sensor was read on an Acumen Explorer™ microplate reader.
Cells containing the caged sensor were incubated with 4-fold dilutions of GF109203X for 30 min before the cells were exposed to uncaging light (1 J/cm^2, 365 nm) and treated with 1 μM PMA. Fluorescent signal from the PKC sensor was read on an Acumen Explorer™ microplate reader. […]

Assay [3] has as its system PKC. Nature of the assay: photoactivated in vitro PKC assay initiated by uncaging caged ATP. Type of assay: biochemical. The conditions noted are these: exposed to 365 nm UV lamp for 10 min; excitation 485 nm, emission 535 nm. How it is done:
FIG. 34 is a line graph depicting the results of a photoactivated PKC assay using caged ATP and a PKC sensor. […] Reactions were read on a fluorescent microtiter plate reader with excitation at 485 nm and emission at 535 nm.
FIG. 33 (see, also, FIG. 23) illustrates the activation of an in vitro PKC assay after exposure to 365 nm light. All components were mixed together in a 96-well microtiter plate. The plate was exposed to a 365 nm UV lamp for 10 min (step 3301) and immediately placed into a fluorescent microtiter plate reader for detection. The light-activated compound is DMNPE-caged ATP. […] See, e.g., McCray and Trentham (1989) “Properties and Uses of Photoreactive Caged Compounds” Annu Rev Biophys Biophys Chem 18:239 for a description of the caged ATP. The PKC probes and reaction set-up are based on Yeh et al. (2002) “Real time visualization of protein kinase activity in living cells” J Biol Chem 277: 11527-11532, with the replacement of normal ATP by DMNPE-caged ATP.

For `CN(C)CCCn1cc(C2=C(c3c[nH]c4ccccc34)C(=O)NC2=O)c2ccccc21` [GF109203X], the figures for the IC50 in assay [1] and in assay [2] were 1100 nM and 1600 nM, respectively.
Consider `COc1cc(C(C)OP(=O)(O)OP(=O)(O)OP(=O)(O)OCC2OC(n3cnc4c(N)ncnc43)C(O)C2O)c([N+](=O)[O-])cc1OC` (stereo not drawn) [DMNPE-caged ATP], for which the “signal response (relative fluorescence) of PKC reaction” value in assay [3] is given as “exhibits signal response similar to the reaction with normal ATP”.

For the origin of these results see US7541193B2, “Caged sensors, regulators and compounds and uses thereof” (Panomics, Inc., priority 2002, dated 2009).
